“And” between values parts separate entries of the source, which are not always exact repeats. Equal values may be shown once. Read-outs that look alike come from different tables or passages of the source.
What was measured:
Assay in all cases: biochemical
Assay type in all cases: binding
[1] = target: panel of 468 diverse kinases (Homo sapiens, UniProt P42336, E545A); settings: PIK3CA(E545A); 1000 nM; read-out: Percent Control
[2] = target: panel of 468 diverse kinases (Homo sapiens, UniProt P09619); settings: PDGFRB; 1000 nM; read-out: Percent Control
[3] = target: panel of 468 diverse kinases (Homo sapiens, UniProt P78356); settings: PIP5K2B; 1000 nM; read-out: Percent Control
[4] = target: panel of 468 diverse kinases (Homo sapiens, UniProt Q8NE63); settings: HIPK4; 1000 nM; read-out: Percent Control
[5] = target: panel of 468 diverse kinases (Homo sapiens, UniProt P51812); settings: 1000 nM, read-out: Percent Control
[6] = target: panel of 468 diverse kinases (Homo sapiens, UniProt O00141); settings: SGK; 1000 nM; read-out: Percent Control
[7] = target: panel of 468 diverse kinases (Homo sapiens, UniProt Q8WTQ7); settings: GRK7; 1000 nM; read-out: Percent Control
[8] = target: panel of 468 diverse kinases (Homo sapiens, UniProt Q00526); settings: CDK3; 1000 nM; read-out: Percent Control
[9] = target: panel of 468 diverse kinases (Plasmodium falciparum, UniProt P62344); settings: read-out: Percent Control
[10] = target: panel of 468 diverse kinases (Homo sapiens, UniProt P53671); settings: LIMK2; 1000 nM; read-out: Percent Control
[11] = target: panel of 468 diverse kinases (Homo sapiens, UniProt Q15303); settings: ERBB4; 1000 nM; read-out: Percent Control
[12] = target: panel of 468 diverse kinases (Homo sapiens, UniProt Q9BYP7); settings: WNK3; 1000 nM; read-out: Percent Control
[13] = target: panel of 468 diverse kinases (Homo sapiens, UniProt Q13233); settings: MAP3K1; 1000 nM; read-out: Percent Control
[14] = test system: panel of 468 diverse kinases
[15] = target: panel of 468 diverse kinases (Homo sapiens, UniProt Q8IVW4); settings: CDKL3; 1000 nM; read-out: Percent Control
[16] = target: panel of 468 diverse kinases (Homo sapiens, UniProt P57058); settings: HUNK; 1000 nM; read-out: Percent Control
[17] = target: panel of 468 diverse kinases (Homo sapiens, UniProt Q96BR1); settings: SGK3; 1000 nM; read-out: Percent Control
[18] = target: panel of 468 diverse kinases (Homo sapiens, UniProt Q15139); settings: PRKD1; 1000 nM; read-out: Percent Control
[19] = target: panel of 468 diverse kinases (Homo sapiens, UniProt Q9Y2H1); settings: NDR2; 1000 nM; read-out: Percent Control
[20] = target: panel of 468 diverse kinases (Homo sapiens, UniProt Q8NG66); settings: NEK11; 1000 nM; read-out: Percent Control
[21] = target: panel of 468 diverse kinases (Homo sapiens, UniProt Q9BRS2); settings: RIOK1; 1000 nM; read-out: Percent Control
[22] = target: panel of 468 diverse kinases (Homo sapiens, UniProt P42338); settings: PIK3CB; 1000 nM; read-out: Percent Control
[23] = target: panel of 468 diverse kinases (Homo sapiens, UniProt O00750); settings: PIK3C2B; 1000 nM; read-out: Percent Control
[24] = target: panel of 468 diverse kinases (Homo sapiens, UniProt Q9Y463); settings: DYRK1B; 1000 nM; read-out: Percent Control
[25] = target: panel of 468 diverse kinases (Homo sapiens, UniProt O75460); settings: ERN1; 1000 nM; read-out: Percent Control
[26] = target: panel of 468 diverse kinases (Homo sapiens, UniProt Q14164); settings: IKK-epsilon; 1000 nM; read-out: Percent Control
[27] = target: panel of 468 diverse kinases (Homo sapiens, UniProt Q15831); settings: LKB1; 1000 nM; read-out: Percent Control
[28] = target: panel of 468 diverse kinases (Homo sapiens, UniProt Q13554); settings: CAMK2B; 1000 nM; read-out: Percent Control
[29] = target: panel of 468 diverse kinases (Homo sapiens, UniProt Q9UEW8); settings: STK39; 1000 nM; read-out: Percent Control
[30] = target: panel of 468 diverse kinases (Homo sapiens, UniProt O75116); settings: ROCK2; 1000 nM; read-out: Percent Control
[31] = target: panel of 468 diverse kinases (Homo sapiens, UniProt O94804); settings: LOK; 1000 nM; read-out: Percent Control

Chain of panel of 468 diverse kinases (Homo sapiens, UniProt O75460) (O75460 19-977 limits assumed): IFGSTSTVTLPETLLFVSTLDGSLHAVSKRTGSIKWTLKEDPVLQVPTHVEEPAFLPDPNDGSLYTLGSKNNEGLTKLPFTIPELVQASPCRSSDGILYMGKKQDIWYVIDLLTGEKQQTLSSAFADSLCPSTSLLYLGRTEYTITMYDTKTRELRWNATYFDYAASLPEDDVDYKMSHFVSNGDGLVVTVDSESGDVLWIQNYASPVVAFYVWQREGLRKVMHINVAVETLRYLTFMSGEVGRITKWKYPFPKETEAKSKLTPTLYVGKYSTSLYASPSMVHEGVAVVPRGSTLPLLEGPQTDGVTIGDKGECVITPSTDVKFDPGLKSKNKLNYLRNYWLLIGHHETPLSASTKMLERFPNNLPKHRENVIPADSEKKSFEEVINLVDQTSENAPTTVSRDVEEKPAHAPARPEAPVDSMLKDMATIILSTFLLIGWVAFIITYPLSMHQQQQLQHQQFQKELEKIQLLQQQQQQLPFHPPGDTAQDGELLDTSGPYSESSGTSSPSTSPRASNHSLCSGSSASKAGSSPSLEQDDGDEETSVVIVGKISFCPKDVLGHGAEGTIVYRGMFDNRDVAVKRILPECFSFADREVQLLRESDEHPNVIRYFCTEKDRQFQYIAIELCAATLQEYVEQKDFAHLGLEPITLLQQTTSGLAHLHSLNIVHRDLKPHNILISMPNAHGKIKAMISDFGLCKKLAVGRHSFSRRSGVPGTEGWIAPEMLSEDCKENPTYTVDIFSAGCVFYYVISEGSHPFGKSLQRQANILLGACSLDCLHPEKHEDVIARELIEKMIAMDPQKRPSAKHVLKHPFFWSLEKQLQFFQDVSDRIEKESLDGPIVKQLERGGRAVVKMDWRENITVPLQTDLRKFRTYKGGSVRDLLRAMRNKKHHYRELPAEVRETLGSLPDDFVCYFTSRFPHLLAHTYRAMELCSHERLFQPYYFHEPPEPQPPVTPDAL
Chain of panel of 468 diverse kinases (Plasmodium falciparum, UniProt P62344) (P62344 2-524 limits assumed): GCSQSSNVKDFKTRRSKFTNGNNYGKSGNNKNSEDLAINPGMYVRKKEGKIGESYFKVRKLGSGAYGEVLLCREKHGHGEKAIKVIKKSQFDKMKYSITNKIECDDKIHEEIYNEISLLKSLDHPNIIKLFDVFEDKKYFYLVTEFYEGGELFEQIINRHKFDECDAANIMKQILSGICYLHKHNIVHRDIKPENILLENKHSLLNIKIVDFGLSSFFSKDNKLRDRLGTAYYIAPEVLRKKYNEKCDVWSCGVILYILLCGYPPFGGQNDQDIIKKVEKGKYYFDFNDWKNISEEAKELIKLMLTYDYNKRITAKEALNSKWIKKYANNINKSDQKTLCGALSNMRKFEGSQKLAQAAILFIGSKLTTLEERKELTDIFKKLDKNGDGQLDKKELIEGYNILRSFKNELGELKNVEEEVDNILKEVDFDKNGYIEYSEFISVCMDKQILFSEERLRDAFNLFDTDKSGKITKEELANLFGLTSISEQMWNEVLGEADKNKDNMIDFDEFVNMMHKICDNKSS
Chain of panel of 468 diverse kinases (Homo sapiens, UniProt Q9Y2H1) (Q9Y2H1 2-464 limits assumed): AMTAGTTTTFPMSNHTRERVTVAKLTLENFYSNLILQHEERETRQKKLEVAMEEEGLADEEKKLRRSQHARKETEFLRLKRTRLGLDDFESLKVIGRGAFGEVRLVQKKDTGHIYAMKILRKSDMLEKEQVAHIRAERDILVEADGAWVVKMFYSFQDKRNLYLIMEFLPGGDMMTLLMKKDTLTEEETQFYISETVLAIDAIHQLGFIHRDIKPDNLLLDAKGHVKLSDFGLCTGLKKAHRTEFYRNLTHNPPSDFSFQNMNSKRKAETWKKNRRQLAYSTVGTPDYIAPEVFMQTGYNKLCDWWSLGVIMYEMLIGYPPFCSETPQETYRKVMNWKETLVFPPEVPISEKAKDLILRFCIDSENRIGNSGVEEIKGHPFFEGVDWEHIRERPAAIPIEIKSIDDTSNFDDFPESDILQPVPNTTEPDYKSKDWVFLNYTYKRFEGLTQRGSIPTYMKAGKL
Chain of panel of 468 diverse kinases (Homo sapiens, UniProt Q15303) (Q15303 26-1308 limits assumed): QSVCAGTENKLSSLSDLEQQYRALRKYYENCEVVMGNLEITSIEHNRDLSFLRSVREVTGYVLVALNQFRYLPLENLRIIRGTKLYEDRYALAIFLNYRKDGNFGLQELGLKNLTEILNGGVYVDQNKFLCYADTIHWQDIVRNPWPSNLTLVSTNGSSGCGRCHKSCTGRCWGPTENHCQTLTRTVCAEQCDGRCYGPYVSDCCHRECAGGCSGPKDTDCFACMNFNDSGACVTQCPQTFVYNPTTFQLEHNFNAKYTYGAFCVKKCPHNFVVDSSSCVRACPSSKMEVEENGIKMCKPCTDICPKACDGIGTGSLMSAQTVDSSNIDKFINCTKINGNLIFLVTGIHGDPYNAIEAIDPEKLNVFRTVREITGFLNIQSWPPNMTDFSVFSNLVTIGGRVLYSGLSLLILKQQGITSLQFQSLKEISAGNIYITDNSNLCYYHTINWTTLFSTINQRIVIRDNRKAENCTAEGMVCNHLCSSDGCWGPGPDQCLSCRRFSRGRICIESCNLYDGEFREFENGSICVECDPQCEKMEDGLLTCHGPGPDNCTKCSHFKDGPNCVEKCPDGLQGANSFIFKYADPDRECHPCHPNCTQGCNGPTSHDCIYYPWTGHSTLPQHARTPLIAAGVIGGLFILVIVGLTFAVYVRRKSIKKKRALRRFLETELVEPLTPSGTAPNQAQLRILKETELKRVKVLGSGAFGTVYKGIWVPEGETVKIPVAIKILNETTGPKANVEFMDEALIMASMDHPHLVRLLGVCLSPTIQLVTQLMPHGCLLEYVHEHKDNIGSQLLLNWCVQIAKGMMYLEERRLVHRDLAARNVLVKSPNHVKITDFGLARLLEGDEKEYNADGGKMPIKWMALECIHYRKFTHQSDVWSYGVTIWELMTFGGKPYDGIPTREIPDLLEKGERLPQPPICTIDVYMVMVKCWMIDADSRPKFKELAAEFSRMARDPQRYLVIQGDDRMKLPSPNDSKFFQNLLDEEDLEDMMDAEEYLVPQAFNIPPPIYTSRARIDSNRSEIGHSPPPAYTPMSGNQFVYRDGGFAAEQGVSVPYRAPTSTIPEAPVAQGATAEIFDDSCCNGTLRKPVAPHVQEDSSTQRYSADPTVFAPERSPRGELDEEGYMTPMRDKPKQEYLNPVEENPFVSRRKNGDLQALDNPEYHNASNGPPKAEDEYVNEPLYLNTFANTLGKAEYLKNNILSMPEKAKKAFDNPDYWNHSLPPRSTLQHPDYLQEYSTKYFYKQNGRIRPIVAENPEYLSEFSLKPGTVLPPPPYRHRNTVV
Chain of panel of 468 diverse kinases (Homo sapiens, UniProt Q13233) (Q13233 2-1512 limits assumed): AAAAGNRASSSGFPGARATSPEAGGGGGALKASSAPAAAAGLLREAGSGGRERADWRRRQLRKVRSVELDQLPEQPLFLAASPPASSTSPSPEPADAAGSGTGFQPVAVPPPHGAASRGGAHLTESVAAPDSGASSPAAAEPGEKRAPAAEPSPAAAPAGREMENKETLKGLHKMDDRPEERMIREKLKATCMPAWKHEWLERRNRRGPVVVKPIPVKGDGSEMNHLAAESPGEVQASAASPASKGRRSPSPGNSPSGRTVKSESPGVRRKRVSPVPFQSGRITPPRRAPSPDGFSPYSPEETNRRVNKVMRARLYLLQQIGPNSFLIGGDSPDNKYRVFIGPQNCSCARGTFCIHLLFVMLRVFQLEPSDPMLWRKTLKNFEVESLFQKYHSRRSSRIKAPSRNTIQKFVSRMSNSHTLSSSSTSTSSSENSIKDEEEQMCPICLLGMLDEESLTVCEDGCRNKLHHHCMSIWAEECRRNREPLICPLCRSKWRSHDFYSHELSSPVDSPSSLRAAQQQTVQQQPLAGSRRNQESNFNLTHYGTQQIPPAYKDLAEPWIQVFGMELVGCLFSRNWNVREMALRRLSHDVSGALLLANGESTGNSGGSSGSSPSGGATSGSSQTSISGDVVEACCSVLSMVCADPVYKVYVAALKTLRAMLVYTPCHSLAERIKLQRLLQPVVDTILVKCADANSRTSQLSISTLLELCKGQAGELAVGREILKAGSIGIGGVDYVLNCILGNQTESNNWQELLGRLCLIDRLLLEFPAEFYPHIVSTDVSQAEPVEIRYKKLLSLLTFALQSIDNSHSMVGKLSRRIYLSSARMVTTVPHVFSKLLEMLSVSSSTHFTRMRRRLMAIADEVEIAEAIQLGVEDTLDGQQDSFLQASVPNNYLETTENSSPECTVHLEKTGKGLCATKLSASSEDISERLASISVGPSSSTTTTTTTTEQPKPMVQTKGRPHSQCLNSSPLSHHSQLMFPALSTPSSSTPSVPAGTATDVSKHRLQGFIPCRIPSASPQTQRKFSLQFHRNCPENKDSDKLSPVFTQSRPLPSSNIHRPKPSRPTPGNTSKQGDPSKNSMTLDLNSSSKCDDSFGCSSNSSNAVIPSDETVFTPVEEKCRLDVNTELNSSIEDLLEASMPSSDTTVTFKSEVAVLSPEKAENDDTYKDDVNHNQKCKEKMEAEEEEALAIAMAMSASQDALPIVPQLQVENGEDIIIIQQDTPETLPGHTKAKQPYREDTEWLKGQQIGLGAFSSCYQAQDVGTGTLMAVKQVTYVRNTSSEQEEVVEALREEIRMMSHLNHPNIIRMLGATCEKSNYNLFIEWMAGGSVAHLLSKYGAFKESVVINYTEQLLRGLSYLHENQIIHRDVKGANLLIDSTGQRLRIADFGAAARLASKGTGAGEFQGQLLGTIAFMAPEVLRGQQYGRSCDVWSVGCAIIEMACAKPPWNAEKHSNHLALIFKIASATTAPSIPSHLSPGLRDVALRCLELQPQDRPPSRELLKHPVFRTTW

COc1cc2nc(NC3CC3)nc(NC3CCN(C(C)C)CC3)c2cc1OC [Formula IV]
remaining activity at 1 µM [1]: 89% | remaining activity at 1 µM [2]: 93% | remaining activity at 1 µM [3]: 100% | remaining activity at 1 µM [4]: 91% | remaining activity at 1 µM ([5]; RSK2(Kin.Dom.1-N-terminal)): 67% | remaining activity at 1 µM ([5]; RSK2(Kin.Dom.2-C-terminal)): 53% | remaining activity at 1 µM [6]: 68% | remaining activity at 1 µM [7]: 90% | remaining activity at 1 µM [8]: 100% | remaining activity at 1 µM [9]: 56% | remaining activity at 1 µM [10]: 96% | remaining activity at 1 µM [11]: 96% | remaining activity at 1 µM [12]: 69% | remaining activity at 1 µM [13]: 54% | Percent Control [14]: 98% and 49% and 80% and 92% and 56% and 57% | kinase selectivity using KINOMEscan [14]: extremely high kinase selectivity | remaining activity at 1 µM [15]: 66% | remaining activity at 1 µM [16]: 74% | remaining activity at 1 µM [17]: 60% | remaining activity at 1 µM [18]: 100% | remaining activity at 1 µM [19]: 100% | remaining activity at 1 µM [20]: 42% | remaining activity at 1 µM [21]: 100% | remaining activity at 1 µM [22]: 71% | remaining activity at 1 µM [23]: 87% | remaining activity at 1 µM [24]: 86% | remaining activity at 1 µM [25]: 33% | remaining activity at 1 µM [26]: 84% | remaining activity at 1 µM [27]: 97% | remaining activity at 1 µM [28]: 91% | remaining activity at 1 µM [29]: 58% | remaining activity at 1 µM [30]: 49% | remaining activity at 1 µM [31]: 90%

Reference: patent publication US11542240B2, “STK19 inhibitors for treatment of cancer” (TRUSTEES OF BOSTON UNIVERSITY, priority 2018, dated 2023)
